Results reported in patent publication US4083993A, “Compositions containing benzoylacetonitrile and method of use to treat inflammation” (American Cyanamid Co., priority 1977, dated 1978).

Tested on: adjuvant induced arthritis
Assay: adjuvant induced arthritis in rats (Freund's adjuvant, injected right hind paw; chronic inflammation with joint destruction)
Assay type: in vivo, royal Hart, Wistar strain rats
Settings: oral, once daily days 0-13
Protocol: Groups of three royal Hart, Wistar strain rats weighing 200+10 grams each were injected intradermally in the right hind paw with Freund's adjuvant (dried human tubercle bacilli in a mineral oil vehicle) at a dose of 2 mg./kg. of body weight. Test compounds were administered orally in a 1.5% starch vehicle at various doses once daily on days 0 through 13 post challenge. Control rats were treated in a similar manner, but given only starch vehicle. On the 14th and 21st day post challenge the diameter of the injected paw (primary lesion) was measured by micrometer caliper. The volume of inflamed paws were estimated from these measurements and the results are expressed as percent inhibition of swelling as compared to controls. At the same time, the other inflamed sites, such as ears, paws and tail (secondary lesions) were observed and each rat was graded as to degree of inflammation and swelling present. The grading is based on a scale of 0 to 24, where 0 represents a complete absence of induced arthritic nodules and 24 represents the maximum degree of inflammation. The mean grade for each treated group is calculated and the effects of each compound are expressed as percent inhibition of the control grade. Table I records the results of these tests conducted with benzoylacetonitrile, o-fluorobenzoylacetonitrile, m-fluorobenzoylacetonitrile, p-fluorobenzoylacetonitrile, and known anti-inflammatory agents. The active compounds of the present invention suppress the progression of the arthritis and associated joint deterioration.

[1] = 25 mg./kg. of body weight, day 14
[2] = 25 mg./kg. of body weight, day 21
[3] = 50 mg./kg. of body weight, day 14
[4] = 50 mg./kg. of body weight, day 21
[5] = 100 mg./kg. of body weight, day 14
[6] = 100 mg./kg. of body weight, day 21
[7] = 200 mg./kg. of body weight, day 14
[8] = 200 mg./kg. of body weight, day 21
[9] = 400 mg./kg. of body weight, day 14
[10] = 400 mg./kg. of body weight, day 21

SMILES	Dead/Treated At 21 Days (25 mg./kg. of body weight)	% Inhibition of Control Grade (secondary lesion) [1] [%]	% Inhibition of Swelling (primary lesion) [1] [%]	Mean Weight Gain [1] [grams]	% Inhibition of Control Grade (secondary lesion) [2] [%]	% Inhibition of Swelling (primary lesion) [2] [%]	Mean Weight Gain [2] [grams]	Dead/Treated At 21 Days (50 mg./kg. of body weight)	% Inhibition of Control Grade (secondary lesion) [3] [%]	% Inhibition of Swelling (primary lesion) [3] [%]	Mean Weight Gain [3] [grams]	% Inhibition of Control Grade (secondary lesion) [4] [%]	% Inhibition of Swelling (primary lesion) [4] [%]	Mean Weight Gain [4] [grams]	Dead/Treated At 21 Days (100 mg./kg. of body weight)	% Inhibition of Control Grade (secondary lesion) [5] [%]	% Inhibition of Swelling (primary lesion) [5] [%]	Mean Weight Gain [5] [grams]	% Inhibition of Control Grade (secondary lesion) [6] [%]	% Inhibition of Swelling (primary lesion) [6] [%]	also measured
N#CCC(=O)c1ccccc1 [Benzoylacetonitrile, benzoylacetonitrile]	3/36	40	54	54	14	33	56	6/54	52	51	53	26	42	59	5/36	70	63	49	43	48	Mean Weight Gain [6]: 65 grams; Dead/Treated At 21 Days (200 mg./kg. of body weight): 2/18; % Inhibition of Control Grade (secondary lesion) [7]: 70%; % Inhibition of Swelling (primary lesion) [7]: 73%; Mean Weight Gain [7]: 56 grams; % Inhibition of Control Grade (secondary lesion) [8]: 43%; % Inhibition of Swelling (primary lesion) [8]: 48%; Mean Weight Gain [8]: 81 grams; Dead/Treated At 21 Days (400 mg./kg. of body weight): 3/18; % Inhibition of Control Grade (secondary lesion) [9]: 84%; % Inhibition of Swelling (primary lesion) [9]: 81%; Mean Weight Gain [9]: 31 grams; % Inhibition of Control Grade (secondary lesion) [10]: 82%; % Inhibition of Swelling (primary lesion) [10]: 72%; Mean Weight Gain [10]: 72 grams
N#CCC(=O)c1cccc(F)c1 [m-Fluorobenzoylacetonitrile, m-fluorobenzoylacetonitrile]	–	–	–	–	–	–	–	0/21	–	40	43	–	27	37	–	–	–	–	–	–	–
N#CCC(=O)c1ccccc1F [o-Fluorobenzoylacetonitrile, o-fluorobenzoylacetonitrile]	–	–	–	–	–	–	–	1/18	–	63	71	–	49	72	–	–	–	–	–	–	–
N#CCC(=O)c1ccc(F)cc1 [p-Fluorobenzoylacetonitrile, p-fluorobenzoylacetonitrile]	1/18	25	33	55	0	17	48	2/36	13	56	61	0	39	58	4/18	44	46	63	10	32	Mean Weight Gain [6]: 71 grams; Dead/Treated At 21 Days (200 mg./kg. of body weight): 3/18; % Inhibition of Control Grade (secondary lesion) [7]: 63%; % Inhibition of Swelling (primary lesion) [7]: 52%; Mean Weight Gain [7]: 67 grams; % Inhibition of Control Grade (secondary lesion) [8]: 16%; % Inhibition of Swelling (primary lesion) [8]: 32%; Mean Weight Gain [8]: 62 grams; Dead/Treated At 21 Days (400 mg./kg. of body weight): 3/18; % Inhibition of Control Grade (secondary lesion) [9]: 72%; % Inhibition of Swelling (primary lesion) [9]: 75%; Mean Weight Gain [9]: 42 grams; % Inhibition of Control Grade (secondary lesion) [10]: 45%; % Inhibition of Swelling (primary lesion) [10]: 63%; Mean Weight Gain [10]: 64 grams
